We go through one substance from patent US9980489B2, “Stabilized bio-available soluble silicate solution” (priority 2010, dated 2018).

The subject of this experiment is silicon accumulator plants, silicon diffusion plants and silicon rejecting plants. The conditions noted are these: foliar spray every week, solution containing 0002 mg/ml Si.

With silicic acid, the “effect on growth, production, resistance to infection, color of fruits, shelf life” value is listed as “clear effect”.
